From patent publication US20170258761A1, “Pharmaceutical Compositions Comprising Canagliflozin” (Sandoz AG, priority 2014, published 2017) come the findings set out here.

Values after ≈ are worked out from the molar mass of the structure shown. Read-outs that look alike come from different tables or passages of the source.

Format in all cases: physicochemical
Data set [1] in a line: Equilibrium aqueous solubility at 25 °C (HPLC). The conditions noted are these: water, 25 ± 1° C. The method, then: As described in Example 5 of the co-pending application PCT/EP2014/059281, the aqueous solubilities of forms HxA and HxB of the present invention and the hemihydrate of Canagliflozin described in WO 2008/069327 A1 were determined by the equilibrium solubility method. Saturated solutions of Canagliflozin, obtained by stirring 50 mg of each crystalline form in 50 mL water were prepared and stirred at 25±1° C. After 60 minutes of stirring, three samples were withdrawn, filtered through 0.45 μm syringe filters and the filtrates were directly analyzed by HPLC.
Using six concentration points of known Canagliflozin concentrations a calibration line was fitted by linear regression.

Data set [2] can be described thus: Equilibrium solubility of Canagliflozin in McIlvaine buffer, FaSSIF and FeSSIF with excipients. The note with it: 37 °C, thermodynamic from solid.
Data set [3] is described as follows: Influence of water activity on physical stability of Canagliflozin. The note with it: samples exposed to 30, 40, 50, 60 RH %, then 50° C. for 14 days. How it is done: The influence of water activity on physical stability of Canagliflozin were further tested. Prior storage at stress stability conditions samples were exposed to different relative humidity (30, 40, 50 and 60 RH %). After storage at elevated temperature (50° C.) for 14 days samples were tested for water activity and polymorphic form. It was established that Canagliflozin was physically stable when water activity was≦0.3. Results confirmed that appropriate dryness of the samples is critical for product stability.
The influence of water activity of the formulation on physical stability of Canagliflozin was further tested. Prior storage at stress stability conditions samples were exposed to different relative humidity (30, 40, 50 and 60 RH %). After storage at elevated temperature (50° C.) for 14 days samples were tested for water activity and polymorphic form. It was established that Canagliflozin was physically stable when water activity was≦0.4. Results confirmed that appropriate dryness of the samples is critical for product stability (see Table 14, showing Examples 2 and 7 as exemplary samples).

Data set [4] can be described thus: Equilibrium solubility of Canagliflozin in McIlvaine buffer, FaSSIF and FeSSIF with excipients. The note with it: 37 °C, thermodynamic from solid. How it is done:
Inhibition of precipitation and supersaturation effects were also evaluated in more biorelevant dissolution media, FaSSIF and FeSSIF, prepared according to Dressman et al. (Dressman et al. Dissolution testing as a prognostic tool for oral drug absorption: immediate release dosage forms. Pharm Res, 1998)). Excipients were used in 1 mg/ml concentration. […] All tests were performed in duplicate.
This is another data set of the same source.

The nature of data set [5]: Water activity of excipients, normal and dried. The note with it: for Water activity dry (#): excipient dried for 4 hours at ambient temperature in a vacuum chamber; for Water activity normal (*): excipient exposed to 40% RH for 24 hours at ambient temperature. The method, then: The influence of water activity of each excipient on chemical and physical stability of Canagliflozin was further tested.
In Table 12, the normal (*) excipients mean that they were exposed to 40% RH for 24 hours at ambient temperature; and the dry (#) excipients mean that they were dried for 4 hours at ambient temperature in a vacuum chamber.

A short description of data set [6]: Precipitation inhibition screening of excipients with nephelometer. The note with it: McIlvaine buffer pH 6.8. How it is done: In vitro high-throughput precipitation inhibition screening with nephelometer was performed for different excipients in McIlvaine buffer pH 6.8 at 1%, 0.1%, and 0.01% (w/v) according to the procedure published in Petrusevska et al (Petrusevska et al. Evaluation of light scattering and turbidity microtiter plate-based methods for detection of the excipient-mediated drug precipitation inhibition. Eur J Pharm Biopharm, 2013). The ratio between turbidity signal for each tested concentration of selected excipient with Canagliflozin and plain buffer containing only Canagliflozin were determined.

Data set [7] can be described thus: Solubility and dynamic solubility of amorphous Canagliflozin versus hemihydrate. The conditions noted are these: 37° C., shaking, HPLC. How it is done: Additionally dynamic solubility in water was determined at 0.5 h, 1 h and 24 h time points (37° C., shaking, HPLC determination).
Data set [8] in a line: Chemical stability in binary mixtures with excipients. The conditions noted are these: 1 g + 1 g excipient of Table 9, tablets, 50° C., sealed glass vial, 14 days. How it is done: Canagliflozin degradation products were followed by high performance liquid chromatography using the following chromatographic method. Samples were dissolved in a mixture of 60 w/w % acetonitrile in buffer pH=5 (0.77 g of CH3OONH4 in 1 L of water, pH adjusted to pH=5 with acetic acid) to achieve a concentration of about 0.2 mg/ml of Canagliflozin. The sample solution was injected into an UHPLC system with a BEH C18 column (1.7 micrometer particles) using binary gradient elution. Mobile phase A consisted of mixture of 70 w/w % buffer with pH=5 in acetonitrile and mobile phase B consisted of acetonitrile. Gradient elution was performed according to the following program: mobile phase A (%)/time (min): 100%/0 min; 100%/5 min; 14%/[…]; 40%/35 min; 15%/40 min; 15%/45 min. The detector was set to a wavelength of 290 nm and impurities quantitated as area % with no response factors applied. Stability of samples was monitored by exposing them to elevated temperature (50° C.) in a sealed glass vial for 14 days. After storage, samples were analysed and the amounts of degradation products measured by UHPLC. The extent of degradation was determined by subtracting the total amount of degradation products of a […] from the total amount of degradation of a […].

On to `Cc1ccc([C@@H]2O[C@H](CO)[C@@H](O)[C@H](O)[C@H]2O)cc1Cc1ccc(-c2ccc(F)cc2)s1` [1-(β-D-glucopyranosyl)-4-methyl-3-[5-(4-fluorophenyl)-2-thienylmethyl]benzene], for which the solubility at 60 min in data set [1] (25 °C, thermodynamic from solid, 60 minutes of stirring, read-out: Abs. Solubilities) stood at 18 µg/mL (≈ 0.0405 mM).

As to `Cc1ccc([C@@H]2O[C@H](CO)[C@@H](O)[C@H](O)[C@H]2O)cc1Cc1ccc(-c2ccc(F)cc2)s1` [Canagliflozin, 1-(β-D-glucopyranosyl)-4-methyl-3-[5-(4-fluorophenyl)-2-thienylmethyl]benzene], the solubility thermodynamic at 24 h in data set [2] (FaSSIF, pH 6.5, fassif, no excipient, 24 h incubation, read-out: Equilibrium solubility in FaSSIF pH 6.5) was determined as 5310 ± 970 µg/mL (≈ 11.9 mM); in data set [2] (McIlvaine buffer, pH 6.5, aqueous buffer, buffer, no excipient, 24 h incubation, read-out: Equilibrium solubility in McIlvaine buffer pH 6.5) it was 21 ± 1 µg/mL (≈ 0.0472 mM); in data set [2] (McIlvaine buffer, pH 6.5, aqueous with cosolvent or surfactant or cyclodextrin, with HPMC 606 1 mg/ml, 24 h, read-out: Equilibrium solubility in McIlvaine buffer pH 6.5) it was 62 ± 7 µg/mL (≈ 0.139 mM); in data set [2] (McIlvaine buffer, pH 6.5, aqueous with cosolvent or surfactant or cyclodextrin, with Texapon 1 mg/ml, 24 h, read-out: Equilibrium solubility in McIlvaine buffer pH 6.5), 2850 ± 332 µg/mL (≈ 6.4 mM); in data set [2] (McIlvaine buffer, pH 6.5, aqueous with cosolvent or surfactant or cyclodextrin, with Texapon + HPMC 603, each 1 mg/ml, 24 h, read-out: Equilibrium solubility in McIlvaine buffer pH 6.5), 2580 ± 36 µg/mL; in data set [4] (FaSSIF, pH 6.5, aqueous with cosolvent or surfactant or cyclodextrin, with Texapon 1 mg/ml, 24 h, read-out: Equilibrium solubility in FaSSIF pH 6.5) it was 7980 µg/mL (≈ 18 mM). Further, the solubility thermodynamic at 24 h in data set [4] (FaSSIF, pH 6.5, aqueous with cosolvent or surfactant or cyclodextrin, with Texapon + HPMC 603, each 1 mg/ml, 24 h, read-out: Equilibrium solubility in FaSSIF pH 6.5) is 8480 ± 180 µg/mL; in data set [4] (FeSSIF, pH 5.5, aqueous with cosolvent or surfactant or cyclodextrin, with Texapon 1 mg/ml, 24 h, read-out: Equilibrium solubility in FeSSIF pH 5.5), 25000 ± 1340 µg/mL (≈ 56.2 mM); in data set [4] (FeSSIF, pH 5.5, aqueous with cosolvent or surfactant or cyclodextrin, with Texapon + HPMC 603, each 1 mg/ml, 24 h, read-out: Equilibrium solubility in FeSSIF pH 5.5), 27800 ± 2350 µg/mL; in data set [4] (FeSSIF, pH 5.5, fessif, no excipient, 24 h incubation, read-out: Equilibrium solubility in FeSSIF pH 5.5), 21000 ± 1030 µg/mL (≈ 47.3 mM). Also, the “water activity at which Canagliflozin was physically stable” value is at most 0.3 in data set [3] (Example A (non-stoichiometric hydrate)) and at most 0.4 in data set [3] (Example B (amorphous formulation)).

`OC[C@H]1O[C@@H](O[C@H]2[C@H](O)[C@@H](O)C(O)O[C@@H]2CO)[C@H](O)[C@@H](O)[C@H]1O` (stereo partly drawn) [Lactose anhydrous]: in data set [5], the “Water activity dry (#)” value was found to be 14.8 and the “Water activity normal (*)” value worked out at 28.6.

On to `CCCCCCCCCCCCCCCCCC(=O)[O-].CCCCCCCCCCCCCCCCCC(=O)[O-].[Mg+2]` [Mg stearate], for which, in data set [5], the “Water activity dry (#)” value was found to be 15.9 and the “Water activity normal (*)” value was determined as 26.6.

Turning to `CCCCCCCCCCCCOS(=O)(=O)[O-].[Na+]` [Texapon, Sodium Lauryl Sulfate], the “time Canagliflozin supersaturation was sustained” value in data set [6] (excipient at highest concentration tested (1% w/v)) was determined as 10 min. Further, in data set [6] (highest concentration tested), the “rate of canagliflozin dissolution in the presence of excipient” value was “fastest”.

As for `Cc1ccc([C@@H]2O[C@H](CO)[C@@H](O)[C@H](O)[C@H]2O)cc1Cc1ccc(-c2ccc(F)cc2)s1` [amorphous Canagliflozin, 1-(β-D-glucopyranosyl)-4-methyl-3-[5-(4-fluorophenyl)-2-thienylmethyl]benzene], in data set [7] (0.5 h, 1 h and 24 h), the “dynamic solubility in water compared to crystalline Canagliflozin hemihydrate” value was “increased solubility as well as dynamic solubility”. For the same compound, the “solubility compared to crystalline Canagliflozin hemihydrate” value in data set [7] (pH 1.2, 4.5 and 6.8) is reported as “increased solubility”. For the same compound, the “degradation products (impurities) in binary mixtures with excipients” value in data set [8] was “no increase in impurities was observed”.

In the case of `Cc1ccc([C@@H]2O[C@H](CO)[C@@H](O)[C@H](O)[C@H]2O)cc1Cc1ccc(-c2ccc(F)cc2)s1` [form HxA, 1-(β-D-glucopyranosyl)-4-methyl-3-[5-(4-fluorophenyl)-2-thienylmethyl]benzene form HxA], in data set [1], the “Rel. Solubilities” value is on record as 100% and the “increased aqueous solubility compared to the crystalline hemihydrate of WO 2008/069327 A1” value turned out to be 10%. In addition, in data set [1] (60 minutes of stirring), the “Abs. Solubilities” value stood at 20 µg/mL.

With `Cc1ccc([C@@H]2O[C@H](CO)[C@@H](O)[C@H](O)[C@H]2O)cc1Cc1ccc(-c2ccc(F)cc2)s1` [form HxB, 1-(β-D-glucopyranosyl)-4-methyl-3-[5-(4-fluorophenyl)-2-thienylmethyl]benzene form HxB], in data set [1], the “Rel. Solubilities” value is 100% and the “increased aqueous solubility compared to the crystalline hemihydrate of WO 2008/069327 A1” value stood at 10%. Further, the “Abs. Solubilities” value in data set [1] (60 minutes of stirring) was 20 µg/mL.

On to `Cc1ccc([C@@H]2O[C@H](CO)[C@@H](O)[C@H](O)[C@H]2O)cc1Cc1ccc(-c2ccc(F)cc2)s1` [hemihydrate of WO 2008/069327 A1 (=Hy0.5)] [1-(β-D-glucopyranosyl)-4-methyl-3-[5-(4-fluorophenyl)-2-thienylmethyl]benzene], for which the “Rel. Solubilities” value in data set [1] worked out at 90%. In data set [8] (listed as Canagliflozin hemihydrate), the “degradation products (impurities) in binary mixtures with excipients” value was “impurities were increased when containing excipients such as Syloid, PEG 6000 and Polyoxyl 40 hydrogenated castor oil”.
